Results published in publication PMC7957578, “N-(1,3,4-Oxadiazol-2-yl)Benzamides as Antibacterial Agents against Neisseria gonorrhoeae” (International Journal of Molecular Sciences, 2021).
Converted amounts (≈) assume the structure as drawn.

Legend:
N. gonorrhoeae 200 = experiment: MIC/MBC against N. gonorrhoeae clinical isolate 200; format: cell-based; conditions: Neisseria gonorrhoeae
Procedure: (§1) Briefly, bacteria were grown overnight on chocolate agar II at 37° C in the presence of 5% CO2. Afterwards, a bacterial suspension equivalent to 1.0 McFarland standard was prepared and diluted in brucella broth supplemented with yeast extract, neopeptone, hematin, pyridoxal, and NAD. Test agents were added in the first row of the 96-well plates and serially diluted along the plates. Plates were then incubated at 37° C in the presence of 5% CO2 for 24 h. […] Plates were then incubated at 37 ° C in the presence of 5% CO2 for 24 h. The MBC was categorized as the lowest concentration that reduced bacterial growth by 99.9% [45, 46, 47].

N. gonorrhoeae 197 = experiment: MIC/MBC against N. gonorrhoeae clinical isolate 197; format: cell-based; conditions: Neisseria gonorrhoeae
Procedure: as §1

N. gonorrhoeae 165 = experiment: MIC/MBC against N. gonorrhoeae clinical isolate 165; format: cell-based; conditions: Neisseria gonorrhoeae
Procedure: as §1

[1] = Caco-2 bidirectional permeability assay; format: in vitro ADME, human; conditions: human, Caco-2
Text: (§2) Oral bioavailability is a highly important consideration when developing bioactive molecules as therapeutic agents. A critical factor of oral bioavailability is human intestinal absorption. The Caco-2 bidirectional permeability assay is the most widely used in vitro model for predicting if a bioactive molecule can have adequate systemic absorption. Thus, we selected HSGN-238 to act as a model to analyze the drug-like properties of newly synthesized N-(1,3,4-oxadiazol-2-yl)benzamides.
(§3) Assay and data analysis were performed by Eurofins Panlabs (MO, USA) according to a previously reported protocol. The apparent permeability coefficient (Papp) of the tested agents was calculated using the equation below: Papp(cm/s)=VR∗CR,end/Δt∗1/A∗(CD,mid−CR,mid), where VR is the volume of the receiver chamber. CR,end is the concentration of the test compound in the receiver chamber at the end time point, Δt is the incubation time, and A is the surface area of the cell monolayer. CD,mid is the calculated mid-point concentration of the test compound in the donor side, which is the mean value of the donor concentration at 0 minutes and the donor concentration at the end time point. CR,mid is the mid-point concentration of the test compound in the receiver side, which is one half of the receiver concentration at the end time point. Concentrations of the test compound were expressed as peak areas of the test compound.

Caco-2 bilayers = experiment: Caco-2 bidirectional permeability assay; format: in vitro ADME, human; conditions: Caco-2 permeability classification
Text: as §2, §3

E. faecalis ATCC 29212 = experiment: MIC/MBC (CLSI broth microdilution) against E. faecalis ATCC 29212; format: cell-based; conditions: Enterococcus faecalis, ATCC29212, E. faecalis ATCC 29212
Procedure: (§4) The minimum inhibitory concentrations (MICs) of the tested compounds and control drugs, linezolid, vancomycin, and gentamicin, were determined using the broth microdilution method according to the guidelines outlined by the Clinical and Laboratory Standards Institute (CLSI) against clinically relevant bacterial (Staphylococcus aureus, MRSA, Escherichia coli, Enterococcus faecalis and Enterococcus faecium strains. S. aureus, MRSA, E. coli, Enterococcus faecalis and Enterococcus faecium were grown aerobically overnight on tryptone soy agar (TSA) plates at 37° C. Afterwards, a bacterial solution equivalent to 0.5 McFarland standard was prepared and diluted in cation-adjusted Mueller–Hinton broth (CAMHB) (for S. aureus, MRSA, and E. coli) to achieve a bacterial concentration of about 5 × 10^5 CFU/mL. Enterococcus faecalis and Enterococcus faecium 0.5 McFarland standard solution was diluted in tryptone soy broth (TSB) to achieve a bacterial concentration of about 5 × 10^5 CFU/mL. Compounds and control drugs were added in the first row of 96-well plates and serially diluted with the corresponding media containing bacteria. Plates were then incubated as previously described. […] The minimum bactericidal concentration (MBC) was tested by spotting 4 µL from wells with no growth onto TSA plates. Plates were incubated at 37 ° C for at least 18 h before recording the MBC. The MBC was categorized as the lowest concentration that reduced bacterial growth by 99.9% [45, 46, 47].

N. gonorrhoeae 166 = experiment: MIC/MBC against N. gonorrhoeae clinical isolate 166; format: cell-based; conditions: Neisseria gonorrhoeae
Procedure: as §1

MRSA USA300 = experiment: MIC/MBC (CLSI broth microdilution) against MRSA USA300; format: cell-based, methicillin-resistant Staphylococcus aureus; conditions: Staphylococcus aureus, MRSA USA300
Procedure: as §4

N. gonorrhoeae WHO L = experiment: MIC/MBC against N. gonorrhoeae WHO L reference strain; format: cell-based; conditions: Neisseria gonorrhoeae
Procedure: as §1

In the case of `O=C(Nc1nnc(-c2ccc(Cl)s2)o1)c1ccc(OC(F)(F)F)cc1` [HSGN-238, N-(5-(5-Chlorothiophen-2-yl)-1,3,4-oxadiazol-2-yl)-4-(trifluoromethoxy)benzamide], the MBC (N. gonorrhoeae 200) is reported as 0.125 µg/mL (≈ 0.321 µM), the MIC (N. gonorrhoeae 200) is reported as 0.125 µg/mL (≈ 0.321 µM) and the MBC (N. gonorrhoeae 197) is reported as 0.125 µg/mL (≈ 0.321 µM). The MIC (N. gonorrhoeae 197) was 0.125 µg/mL (≈ 0.321 µM), the MBC (N. gonorrhoeae 165) was 0.25 µg/mL (≈ 0.641 µM) and the MIC (N. gonorrhoeae 165) was 0.125 µg/mL (≈ 0.321 µM). The Papp A→B ([1]; apical to basolateral) was 82.3 ×10⁻⁶ cm/s, the Papp B→A ([1]; basolateral to apical) was 32.9 ×10⁻⁶ cm/s and the “Notes (permeability class)” value (Caco-2 bilayers) was “High Permeability”. It also gave an MBC (E. faecalis ATCC 29212; read-out: MBC) of 32 µg/mL (≈ 82.1 µM), an MIC (E. faecalis ATCC 29212; read-out: MIC) of 1 µg/mL (≈ 2.57 µM) and an MBC (N. gonorrhoeae 166) of 0.25 µg/mL (≈ 0.641 µM). It also gave an MIC (N. gonorrhoeae 166) of 0.125 µg/mL (≈ 0.321 µM), an MBC (MRSA USA300; read-out: MBC) of 16 µg/mL (≈ 41.1 µM) and an MIC (MRSA USA300; read-out: MIC) of 0.25 µg/mL (≈ 0.641 µM). The MBC (N. gonorrhoeae WHO L) was 0.125 µg/mL (≈ 0.321 µM) and the MIC (N. gonorrhoeae WHO L) was 0.06 µg/mL (≈ 0.154 µM).
